Values after ≈ are worked out from the molar mass of the structure shown.
Legend:
human TLR7 = target: T1, human TLR7 (Homo sapiens, UniProt Q9NYK1); experiment: HEK293-Blue-hTLR-7 cells assay (SEAP reporter); type: cell-based; details: for Ratio (EC50(prodrug)/EC50(active form)): EC50 of prodrug over EC50 of corresponding active form; for EC50: HEK293-Blue-hTLR-7 cells, SEAP reporter, 20 hrs, prodrug, read-out: HEK293-hTLR-7 EC50 (Prodrug)
T1 sequence (Q9NYK1 27-1049): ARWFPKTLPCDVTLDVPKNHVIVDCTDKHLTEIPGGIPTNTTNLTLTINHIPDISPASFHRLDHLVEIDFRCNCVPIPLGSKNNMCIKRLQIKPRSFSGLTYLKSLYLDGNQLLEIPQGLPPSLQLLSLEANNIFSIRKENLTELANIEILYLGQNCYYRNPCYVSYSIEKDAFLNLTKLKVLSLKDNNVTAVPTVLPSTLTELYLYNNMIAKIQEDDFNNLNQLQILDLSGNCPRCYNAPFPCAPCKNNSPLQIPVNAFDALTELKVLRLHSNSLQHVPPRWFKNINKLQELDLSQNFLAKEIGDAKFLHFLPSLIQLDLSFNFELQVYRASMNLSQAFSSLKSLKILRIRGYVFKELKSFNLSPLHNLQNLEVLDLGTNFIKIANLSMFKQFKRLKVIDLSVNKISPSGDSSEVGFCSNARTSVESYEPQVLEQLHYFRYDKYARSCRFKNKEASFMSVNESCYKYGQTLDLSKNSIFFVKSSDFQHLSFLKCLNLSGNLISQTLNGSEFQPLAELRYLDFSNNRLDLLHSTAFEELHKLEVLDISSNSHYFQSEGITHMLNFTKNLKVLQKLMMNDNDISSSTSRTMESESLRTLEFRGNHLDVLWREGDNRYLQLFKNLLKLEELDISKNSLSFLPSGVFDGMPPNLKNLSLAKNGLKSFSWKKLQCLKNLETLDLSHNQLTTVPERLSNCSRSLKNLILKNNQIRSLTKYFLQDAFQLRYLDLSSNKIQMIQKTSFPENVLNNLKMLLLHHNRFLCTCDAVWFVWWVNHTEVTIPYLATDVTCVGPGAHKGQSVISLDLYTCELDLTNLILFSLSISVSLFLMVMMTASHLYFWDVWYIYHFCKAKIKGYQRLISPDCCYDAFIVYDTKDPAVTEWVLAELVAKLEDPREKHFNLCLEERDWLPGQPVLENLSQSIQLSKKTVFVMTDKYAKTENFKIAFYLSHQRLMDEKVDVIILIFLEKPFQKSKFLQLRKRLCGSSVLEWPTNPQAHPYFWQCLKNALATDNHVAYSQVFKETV
From the text: HEK293-Blue-hTLR-7 Cells Assay:
A stable HEK293-Blue-hTLR-7 cell line was purchased from InvivoGen (Cat.#: hkb-htlr7, San Diego, Calif., USA). These cells were designed for studying the stimulation of human TLR7 by monitoring the activation of NF-κB. A SEAP (secreted embryonic alkaline phosphatase) reporter gene was placed under the control of the IFN-β minimal promoter fused to five NF-κB and AP-1-binding sites. The SEAP was induced by activating NF-κB and AP-1 via stimulating HEK-Blue hTLR7 cells with TLR7 ligands. Therefore the reporter expression was regulated by the NF-κB promoter upon stimulation of human TLR7 for 20 hrs. The cell culture supernatant SEAP reporter activity was determined using QUANTI-Blue™ kit (Cat.#: rep-qbl, Invivogen, San Diego, Calif., USA) at a wavelength of 640 nm, a detection medium that turns purple or blue in the presence of alkaline phosphatase.
HEK293-Blue-hTLR7 cells were incubated at a density of 250,000˜450,000 cells/mL in a volume of 180 μL in a 96-well plate in Dulbecco's Modified Eagle's medium (DMEM) containing 4.5 g/L glucose, 50 U/mL penicillin, […], […], 2 mM L-glutamine, 10% (V/V) heat-inactivated fetal bovine serum for 24 hrs. Then the HEK293-Blue-hTLR-7 cells were incubated with addition of 20 μL test compound in a serial dilution in the presence of final DMSO at 1% and perform incubation under 37° C. in a CO2 incubator for 20 hrs. Then 20 μL of the supernatant from each well was incubated with 180 μL Quanti-blue substrate solution at 37° C. for 2 hrs and the absorbance was read at 620˜655 nm using a spectrophotometer. The signalling pathway that TLR7 activation leads to downstream NF-κB activation has been widely accepted, and therefore similar reporter assay was also widely used for evaluating TLR7 agonist (Tsuneyasu Kaisho and Takashi Tanaka, Trends in Immunology, Volume 29, Issue 7, July 2008, […]; Hiroaki Hemmi et al, Nature Immunology 3, 196-200 (2002)).
The Compounds and Examples of the present invention were tested in HEK293-hTLR-7 assay for their TLR7 agonism activity as described herein and results are listed in Table 1. […] The calculated ratio of EC50(prodrug)/EC50(active form) were within the range from 32 to about 7600.

LYSA solubility study = type: physicochemical; details: for solubility thermodynamic: phosphate buffer, pH 6.5, aqueous buffer, thermodynamic from solid, 0.05M phosphate buffer pH 6.5, read-out: LYSA of Prodrugs
Procedure: LYSA study is used to determine the aqueous solubility of tested compounds. Samples were prepared in duplicate from 10 mM DMSO stock solution. After evaporation of DMSO with a centrifugal vacuum evaporator, the compounds were dissolved in 0.05M phosphate buffer (pH 6.5), stirred for one hour and shaken for two hours. After one night, the solutions were filtered using a microtiter filter plate. Then the filtrate and its 1/10 dilution were analyzed by HPLC-UV. […] The results were in μg/mL. In case the percentage of sample measured in solution after evaporation divided by the calculated maximum of sample amount was bigger than 80%, the solubility was reported as bigger than this value.

SMILES | Ratio (EC50(prodrug)/EC50(active form)) (human TLR7) | EC50 (human TLR7) [µM] | solubility thermodynamic (LYSA solubility study) [µg/mL] | LYSA of Prodrugs (LYSA solubility study; aqueous solubility, 0.05M phosphate buffer pH 6.5) [µg/mL]
CCCS(=N)(=O)c1nc(N)c2c(n1)n(Cc1ccccc1)c(=O)n2C(=O)N1CCC(N2CCCCC2)CC1 (stereo not shown) [Example 4, 6-Amino-9-benzyl-7-[4-(1-piperidyl)piperidine-1-carbonyl]-2-(propylsulfonimidoyl)purin-8-one] | 353.8 | 23 | 695 (≈ 1290 µM) | 
CCCN(C)C(=O)n1c(=O)n(Cc2ccc(C)cc2)c2nc([S@@](=N)(=O)CC)nc(N)c21 (single isomer, unassigned) [Example 43-B] | 2240 | 78.4 | 170 (≈ 382 µM) | 
CCCS(=N)(=O)c1nc(N)c2c(n1)n(Cc1ccccc1)c(=O)n2C(=O)N(C)CC(=O)OCC (stereo not shown) [Example 14, Ethyl 2-[[6-amino-9-benzyl-8-oxo-2-(propylsulfonimidoyl)purine-7-carbonyl]-methyl-amino]acetate] | 36.9 | 2.4 | 225 (≈ 460 µM) | 
CCCS(=N)(=O)c1nc(N)c2c(n1)n(Cc1ccccc1)c(=O)n2C(=O)N(C)CC(C)C (stereo not shown) [Example 13, 6-Amino-9-benzyl-N-isobutyl-N-methyl-8-oxo-2-(propylsulfonimidoyl)purine-7-carboxamide] | 1030.8 | 67 | 155 (≈ 337 µM) | 
CCCS(=N)(=O)c1nc(N)c2c(n1)n(Cc1ccccc1)c(=O)n2C(=O)N(C)CCCOC (stereo not shown) [Example 12, 6-Amino-9-benzyl-N-(3-methoxypropyl)-N-methyl-8-oxo-2-(propylsulfonimidoyl)purine-7-carboxamide] | 675.4 | 43.9 | 120 (≈ 252 µM) | 
CCCS(=N)(=O)c1nc(N)c2c(n1)n(Cc1ccccc1)c(=O)n2C(=O)N(CC)CCOC (stereo not shown) [Example 5, 6-Amino-9-benzyl-N-ethyl-N-(2-methoxyethyl)-8-oxo-2-(propylsulfonimidoyl)purine-7-carboxamide] | 630.8 | 41 | > 595 | 
CCCS(=N)(=O)c1nc(N)c2c(n1)n(Cc1ccccc1)c(=O)n2C(=O)N(C)CCC(=O)OCC (stereo not shown) [Example 15, Ethyl 3-[[6-amino-9-benzyl-8-oxo-2-(propylsulfonimidoyl)purine-7-carbonyl]-methyl-amino]propanoate] | 7600 | 494 | 405 (≈ 804 µM) | 
CCN(C)C(=O)n1c(=O)n(Cc2ccc(F)cc2)c2nc(S(=N)(=O)CC)nc(N)c21 (single isomer, unassigned) [Example 46-B] |  | 45.7 |  | >580
CCCN(CCOC)C(=O)n1c(=O)n(Cc2ccccc2)c2nc(S(=N)(=O)CCC)nc(N)c21 (stereo not shown) [Example 7, 6-Amino-9-benzyl-N-(2-methoxyethyl)-8-oxo-N-propyl-2-(propylsulfonimidoyl)purine-7-carboxamide] | 306.2 | 19.9 | 615 (≈ 1260 µM) | 
CCCN(CC)C(=O)n1c(=O)n(Cc2ccccc2)c2nc(S(=N)(=O)CCC)nc(N)c21 (stereo not shown) [Example 3, 6-Amino-9-benzyl-N-ethyl-8-oxo-N-propyl-2-(propylsulfonimidoyl)purine-7-carboxamide] |  | 15.1 | 240 (≈ 522 µM) | 
CCCS(=N)(=O)c1nc(N)c2c(n1)n(Cc1ccccc1)c(=O)n2C(=O)N1CCC1 (stereo not shown) [Example 9, 6-Amino-7-(azetidine-1-carbonyl)-9-benzyl-2-(propylsulfonimidoyl)purin-8-one] | 295.4 | 19.2 | > 520 | 
CCCS(=N)(=O)c1nc(N)c2c(n1)n(Cc1ccccc1)c(=O)n2C(=O)N(C)C(C)C (stereo not shown) [Example 10, 6-Amino-9-benzyl-N-isopropyl-N-methyl-8-oxo-2-(propylsulfonimidoyl)purine-7-carboxamide] | 1053.8 | 68.5 | 120 (≈ 269 µM) | 
CCCCN(C)C(=O)OCCN(C)C(=O)n1c(=O)n(Cc2ccccc2)c2nc(S(=N)(=O)CCC)nc(N)c21 (stereo not shown) [Example 29, 2-[[6-Amino-9-benzyl-8-oxo-2-(propylsulfonimidoyl)purine-7-carbonyl]-methyl-amino]ethyl N-butyl-N-methyl-carbamate] | 750.8 | 48.8 | 395 (≈ 705 µM) | 
CCCS(=N)(=O)c1nc(N)c2c(n1)n(Cc1ccccc1)c(=O)n2C(=O)N(C)CCN(C)C(=O)OC (stereo not shown) [Example 26, Methyl N-[2-[[6-amino-9-benzyl-8-oxo-2-(propylsulfonimidoyl)purine-7-carbonyl]-methyl-amino]ethyl]-N-methyl-carbamate] | 206.2 | 13.4 | > 690 | 
CCCN(C)C(=O)n1c(=O)n(Cc2ccccc2)c2nc(S(=N)(=O)CCC)nc(N)c21 (single isomer, unassigned) [Example 1-A] | 634.3 | 42.5 | 315 (≈ 707 µM) | 
CCCS(=N)(=O)c1nc(N)c2c(n1)n(Cc1ccccc1)c(=O)n2C(=O)N(C)CCC(=O)OC(C)(C)C (stereo not shown) [Example 16, tert-Butyl 3-[[6-amino-9-benzyl-8-oxo-2-(propylsulfonimidoyl)purine-7-carbonyl]-methyl-amino]propanoate] | 493.8 | 32.1 | 205 (≈ 386 µM) | 
CCCCN(CC)C(=O)n1c(=O)n(Cc2ccccc2)c2nc(S(=N)(=O)CCC)nc(N)c21 (stereo not shown) [Example 6, 6-Amino-9-benzyl-N-butyl-N-ethyl-8-oxo-2-(propylsulfonimidoyl)purine-7-carboxamide] | 1266.2 | 82.3 | 140 (≈ 296 µM) | 
CCCS(=N)(=O)c1nc(N)c2c(n1)n(Cc1ccccc1)c(=O)n2C(=O)N(CCOC)CCOC (stereo not shown) [Example 8, 6-Amino-9-benzyl-N,N-bis(2-methoxyethyl)-8-oxo-2-(propylsulfonimidoyl)purine-7-carboxamide] | 32.3 | 2.1 | 620 (≈ 1230 µM) | 
CCCS(=N)(=O)c1nc(N)c2c(n1)n(Cc1ccccc1)c(=O)n2C(=O)N(C)CCOC (single isomer, unassigned) [Example 2-A] | 43.0 | 3.7 | > 600 | 
